For 36 molecules, IC50 and IC90 results are on record in ChEMBL document CHEMBL4483862, “Open-source discovery of chemical leads for next-generation chemoprotective antimalarials” (2018).

The IC50 is the point on the concentration scale where inhibition reaches its midpoint. For orientation: IC90 means the point of the concentration-response curve where the effect stands at 90%.

The assay has as its system Plasmodium berghei. The experiment in a line: Luciferase/luciferin-expressing antifolate-resistant parasites were used to infect a culture of HepG2 cells that were pre-incubated with compounds. Infected hepatocytes emit light due to the luciferase reaction. Assay results are presented as the percent inhibition of light emission compared to control. […]. Type of assay: functional. The settings on record: sporozoite; for IC90: read-out: LUCIFERASE INFECTION ASSAY - IC90.

Setting [1] is: read-out: LUCIFERASE INFECTION ASSAY - IC50.

Some results are limits rather than exact numbers.

Consider `C=CCN(C(=O)c1ccccc1OCc1c(C)noc1C)c1nc2c(s1)CCCC2`, for which the IC90 is more than 10 µM. Moreover, the IC50 under setting [1] is more than 10 µM.
Take `COc1ccc(-c2ccc3ncc(-c4ccc5c(c4)OCO5)n3n2)cc1OC`: the IC90 is 1.1 µM. Further, the IC50 (HEPG2TOX_HILL_SLOPE 2.06, HEPG2TOX_R_SQUARED 0.96, PBLUC_HILL_SLOPE 2.96, PBLUC_R_SQUARED 0.768, read-out: LUCIFERASE INFECTION ASSAY - IC50) is 0.524 µM.
`O=C(c1cccs1)N1CCN(C2c3ccccc3-c3ccccc32)CC1`: the IC90 is more than 9.15 µM. The concentration for half-maximal inhibition (IC50) (PBLUC_HILL_SLOPE 11.4, PBLUC_R_SQUARED 0.0886, read-out: LUCIFERASE INFECTION ASSAY - IC50) was more than 9.15 µM.
Regarding `COc1ccc2c(c1)c(-c1csc(NC(=O)c3ccccn3)n1)c(C)n2C`, the concentration for an effect of 90% (IC90) is more than 8.72 µM. For the same molecule, for the setting “PBLUC_HILL_SLOPE 1.89, PBLUC_R_SQUARED 0.766, read-out: LUCIFERASE INFECTION ASSAY - IC50”, the IC50 is more than 8.72 µM.
In the case of `O=C(COC(=O)c1ccc2[nH]c3c(c2c1)CCCC3)c1ccc2c(c1)OCCO2`, the IC90 is 9.92 µM. The half-maximal inhibitory concentration (IC50) (PBLUC_HILL_SLOPE 11.3, PBLUC_R_SQUARED 0.654, read-out: LUCIFERASE INFECTION ASSAY - IC50) turned out to be 8.17 µM.
Consider `Oc1c(C(Nc2nc3ccccc3s2)c2ccc(OC(F)F)cc2)ccc2cccnc12` (stereo unspecified), for which the IC90 is more than 10 µM. The IC50 under setting [1] came to 5.55 µM.
As for `CCNC(=S)NNC(=O)/C=C/c1ccccc1OC`, the IC90 is more than 10 µM. Also, where the note is “FFLUC_HILL_SLOPE 0.401, FFLUC_R_SQUARED 0.162, HEPG2TOX_HILL_SLOPE 12.3, HEPG2TOX_R_SQUARED 0.97, read-out: LUCIFERASE INFECTION ASSAY - IC50”, the IC50 is more than 10 µM.
With `O=C(COC(=O)c1ccc2ccccc2n1)NCCc1ccccc1`, the IC90 is more than 10 µM. Moreover, under setting [1], the IC50 is more than 10 µM.
On to `COc1ccc(S(=O)(=O)N(CC(=O)c2cc(C)n(-c3ccc(Cl)cc3)c2C)Cc2ccccc2)cc1`, for which the 90% effect concentration (IC90) was more than 10 µM. Moreover, the half-maximal inhibitory concentration (IC50) under setting [1] was more than 10 µM.
As for `CC(C)Oc1cccc(-c2cn3c(-c4ccc(N(C)C)cc4)cnc3cn2)c1`, the IC90 was more than 8.86 µM. Also, the IC50 (PBLUC_HILL_SLOPE 15, PBLUC_R_SQUARED 0.312, read-out: LUCIFERASE INFECTION ASSAY - IC50) was more than 8.86 µM.
In the case of `O=C1Cn2c(c(-c3nc4ccccc4[nH]3)c(=O)c3ccccc32)N1`, the 90% effect concentration (IC90) was 9.39 µM. In addition, the 50% inhibitory concentration (IC50) (HEPG2TOX_HILL_SLOPE 13.7, HEPG2TOX_R_SQUARED 0.894, PBLUC_HILL_SLOPE 11.3, PBLUC_R_SQUARED 0.46, read-out: LUCIFERASE INFECTION ASSAY - IC50) came to 7.72 µM.
In the case of `CCOC(=O)c1c(N)sc(Sc2ccccc2[N+](=O)[O-])c1-c1ccccc1`, the concentration for an effect of 90% (IC90) was more than 10 µM. For the setting “PBLUC_HILL_SLOPE 2.49, PBLUC_R_SQUARED 0.748, read-out: LUCIFERASE INFECTION ASSAY - IC50”, the IC50 is 4.39 µM.
As to `Nc1ncnc(N/N=C/c2ccc(O)cc2O)c1[N+](=O)[O-]`, the IC90 was more than 10 µM. Also, the IC50 (FFLUC_HILL_SLOPE 17.8, FFLUC_R_SQUARED 0.491, HEPG2TOX_HILL_SLOPE 1.97, HEPG2TOX_R_SQUARED 0.831, read-out: LUCIFERASE INFECTION ASSAY - IC50) was more than 10 µM.
`COC(=O)c1ccccc1NC(=O)/C=C/c1ccc(N2CCCS2(=O)=O)cc1`: the IC90 is 6.74 µM. In addition, under setting [1], the concentration for half-maximal inhibition (IC50) was 2.97 µM.
As to `COc1ccc(OC)c(CCNc2nc3cnc(-c4ccc5c(c4)OCO5)cc3n2C)c1`, the IC90 stood at 2.5 µM. For the same molecule, the 50% inhibitory concentration (IC50) (HEPG2TOX_HILL_SLOPE 2.94, HEPG2TOX_R_SQUARED 0.93, PBLUC_HILL_SLOPE 1.47, PBLUC_R_SQUARED 0.742, read-out: LUCIFERASE INFECTION ASSAY - IC50) is 0.558 µM.
On to `CCc1nnc(NC(=O)CCSCc2cn3ccccc3n2)s1`, for which the concentration for an effect of 90% (IC90) was more than 10 µM. Also, under setting [1], the IC50 is more than 10 µM.
`O=C1c2ccccc2C(=Cc2ccsc2)c2ccccc21`: the 90% effect concentration (IC90) was more than 10 µM. Under “PBLUC_HILL_SLOPE 16.4, 0.310, PBLUC_R_SQUARED 0.161, 0.532, read-out: LUCIFERASE INFECTION ASSAY - IC50”, the 50% inhibitory concentration (IC50) was 4.9 µM.
For the molecule `COc1cc(-c2cc(-c3ccc(S(C)(=O)=O)cc3)cnc2N)ccc1O`, the concentration for an effect of 90% (IC90) stood at 1.1 µM. Under “HEPG2TOX_HILL_SLOPE 0.691, HEPG2TOX_R_SQUARED 0.303, PBLUC_HILL_SLOPE 2.60E+03, PBLUC_R_SQUARED 0.903, read-out: LUCIFERASE INFECTION ASSAY - IC50”, the IC50 came to 1.1 µM.
With `O=C(Nc1ccc(SC(F)(F)F)cc1)Nc1ccc(Oc2ccc(Cl)cc2Cl)nc1`, the concentration for an effect of 90% (IC90) is 5.98 µM. For the same molecule, the concentration for half-maximal inhibition (IC50) (FFLUC_HILL_SLOPE 4.22, FFLUC_R_SQUARED 0.441, HEPG2TOX_HILL_SLOPE 15.8, HEPG2TOX_R_SQUARED 0.933, PBLUC_HILL_SLOPE 1.66, PBLUC_R_SQUARED 0.482, read-out: LUCIFERASE INFECTION ASSAY - IC50) was 1.59 µM.
With `Cc1cc(N(Cc2ccc(C(C)C)cc2)C2CC2)n2ncnc2n1`, the IC90 was more than 10 µM. For the same molecule, the IC50 (HEPG2TOX_HILL_SLOPE 2.35, HEPG2TOX_R_SQUARED 0.908, PBLUC_HILL_SLOPE 2.49, PBLUC_R_SQUARED 0.764, read-out: LUCIFERASE INFECTION ASSAY - IC50) came to 4.95 µM.
On to `COc1ccc(C(=O)/C(=C\c2ccc([N+](=O)[O-])cc2)c2nc3ccccc3[nH]2)cc1`, for which the 90% effect concentration (IC90) is 9.32 µM. Under “FFLUC_HILL_SLOPE 7.19, FFLUC_R_SQUARED 0.76, HEPG2TOX_HILL_SLOPE 6.54, HEPG2TOX_R_SQUARED 0.945, PBLUC_HILL_SLOPE 13.7, PBLUC_R_SQUARED 0.214, read-out: LUCIFERASE INFECTION ASSAY - IC50”, the IC50 came out at 7.93 µM.
`CCCn1c(NC(=O)c2ccc(S(=O)(=O)N3CC(C)OC(C)C3)cc2)nc2ccccc21` (stereo unspecified): the concentration for an effect of 90% (IC90) came to 5.08 µM. In addition, the half-inhibitory concentration (IC50) (HEPG2TOX_HILL_SLOPE 9.83, HEPG2TOX_R_SQUARED 0.869, PBLUC_HILL_SLOPE 10.1, PBLUC_R_SQUARED 0.696, read-out: LUCIFERASE INFECTION ASSAY - IC50) amounted to 4.09 µM.
Consider `CCC(=O)Nc1nc2ccc(NC(=O)c3cc(OC)cc(OC)c3)cc2s1`, for which the concentration for an effect of 90% (IC90) was more than 8.56 µM. Also, under “PBLUC_HILL_SLOPE 2.13, PBLUC_R_SQUARED 0.461, read-out: LUCIFERASE INFECTION ASSAY - IC50”, the IC50 worked out at 5.13 µM.
With `CCn1c(NC(=O)c2cccnc2Oc2ccccc2)nc2ccccc21`, the IC90 was more than 10 µM. Besides, the IC50 under setting [1] was more than 10 µM.
With `Cc1cccc(NC(=O)c2ccc(Cl)c(S(=O)(=O)N3CCc4ccccc43)c2)n1`, the IC90 is more than 10 µM. Further, the IC50 under setting [1] was more than 10 µM.
Regarding `N#Cc1sc(SCc2ccccc2)c2c1CC(c1ccccc1)CC2=O` (stereo unspecified), the concentration for an effect of 90% (IC90) was more than 8.79 µM. Where the note is “HEPG2TOX_HILL_SLOPE 1.94, HEPG2TOX_R_SQUARED 0.866, PBLUC_HILL_SLOPE 1.6, PBLUC_R_SQUARED 0.401, read-out: LUCIFERASE INFECTION ASSAY - IC50”, the IC50 was 7.45 µM.
In the case of `c1cncc(Cn2cnc3cnc(Nc4cccnc4)cc32)c1`, the IC90 was more than 10 µM. Besides, the concentration for half-maximal inhibition (IC50) under setting [1] was more than 10 µM.
Turning to `COc1cccc(-c2nc3ccnc(NCCc4ccccc4)c3[nH]2)c1`, the concentration for an effect of 90% (IC90) was determined as 7.63 µM. The IC50 (PBLUC_HILL_SLOPE 2.45, PBLUC_R_SQUARED 0.513, read-out: LUCIFERASE INFECTION ASSAY - IC50) worked out at 3.11 µM.
Consider `O=C(Nc1nc2ccccc2[nH]1)c1cc(-c2ccccn2)nc2ccccc12`, for which the IC90 is 9.7 µM. The IC50 (PBLUC_HILL_SLOPE 9.86, PBLUC_R_SQUARED 0.717, read-out: LUCIFERASE INFECTION ASSAY - IC50) turned out to be 7.76 µM.
Regarding `COc1cc(-c2cn3c(-c4cccc(C(C)=O)c4)cnc3cn2)ccc1O`, the IC90 was more than 9.18 µM. Further, the half-inhibitory concentration (IC50) (HEPG2TOX_HILL_SLOPE 8.28, HEPG2TOX_R_SQUARED 0.589, PBLUC_HILL_SLOPE 10.1, PBLUC_R_SQUARED 0.274, read-out: LUCIFERASE INFECTION ASSAY - IC50) turned out to be 7.75 µM.
`CC(C)c1csc(NC(=O)c2cnn(-c3ccccc3F)c2C(F)(F)F)n1`: the concentration for an effect of 90% (IC90) is 2.32 µM. Besides, the half-inhibitory concentration (IC50) (FFLUC_HILL_SLOPE 1.67, FFLUC_R_SQUARED 0.227, HEPG2TOX_HILL_SLOPE 2.85, HEPG2TOX_R_SQUARED 0.664, PBLUC_HILL_SLOPE 0.553, PBLUC_R_SQUARED 0.884, read-out: LUCIFERASE INFECTION ASSAY - IC50) was found to be 0.0438 µM.
As to `C/C(=N\NC(N)=S)c1csc(-c2ccccc2)n1`, the IC90 was 11.9 µM. Also, the IC50 (HEPG2TOX_HILL_SLOPE 1.53, HEPG2TOX_R_SQUARED 0.983, PBLUC_HILL_SLOPE 21.6, PBLUC_R_SQUARED 0.0721, read-out: LUCIFERASE INFECTION ASSAY - IC50) stood at 10.7 µM.
Consider `Cn1c(-c2ccccc2)c(C(=O)COc2ccc(-c3ccccc3)cc2)c2ccccc21`, for which the IC90 was more than 10 µM. Besides, where the note is “HEPG2TOX_HILL_SLOPE 1.37, HEPG2TOX_R_SQUARED 0.968, PBLUC_HILL_SLOPE 1.98, PBLUC_R_SQUARED 0.384, read-out: LUCIFERASE INFECTION ASSAY - IC50”, the IC50 was 4.87 µM.
With `O=C(NC1CC1)c1ccc(-c2cnc3c(NCc4cccs4)nccn23)cc1`, the IC90 was found to be 3.14 µM.
Consider `O=S(=O)(c1ccc(Cl)c(NC(=S)N/N=C/c2ccc(O)cc2O)c1)N1CCOCC1`, for which the IC90 was 8.73 µM. For the same molecule, the IC50 (HEPG2TOX_HILL_SLOPE 2.35, HEPG2TOX_R_SQUARED 0.922, PBLUC_HILL_SLOPE 5.37, PBLUC_R_SQUARED 0.597, read-out: LUCIFERASE INFECTION ASSAY - IC50) is 5.8 µM.
On to `CS(=O)(=O)c1ccc2c(c1)sc1nc(-c3ccccc3Cl)cn12`, for which the IC90 is more than 10 µM. For the same molecule, where the note is “PBLUC_HILL_SLOPE 1.82, PBLUC_R_SQUARED 0.22, read-out: LUCIFERASE INFECTION ASSAY - IC50”, the IC50 came to 4.47 µM.
